From patent US9896440B2, “Aryl substituted heterocyclyl sulfones” (GRÜNENTHAL GMBH, priority 2014, dated 2018) come the findings set out here.

Where only a bound is given, the exact number is not on record here.

T1 sequence (Q00975 whole entry): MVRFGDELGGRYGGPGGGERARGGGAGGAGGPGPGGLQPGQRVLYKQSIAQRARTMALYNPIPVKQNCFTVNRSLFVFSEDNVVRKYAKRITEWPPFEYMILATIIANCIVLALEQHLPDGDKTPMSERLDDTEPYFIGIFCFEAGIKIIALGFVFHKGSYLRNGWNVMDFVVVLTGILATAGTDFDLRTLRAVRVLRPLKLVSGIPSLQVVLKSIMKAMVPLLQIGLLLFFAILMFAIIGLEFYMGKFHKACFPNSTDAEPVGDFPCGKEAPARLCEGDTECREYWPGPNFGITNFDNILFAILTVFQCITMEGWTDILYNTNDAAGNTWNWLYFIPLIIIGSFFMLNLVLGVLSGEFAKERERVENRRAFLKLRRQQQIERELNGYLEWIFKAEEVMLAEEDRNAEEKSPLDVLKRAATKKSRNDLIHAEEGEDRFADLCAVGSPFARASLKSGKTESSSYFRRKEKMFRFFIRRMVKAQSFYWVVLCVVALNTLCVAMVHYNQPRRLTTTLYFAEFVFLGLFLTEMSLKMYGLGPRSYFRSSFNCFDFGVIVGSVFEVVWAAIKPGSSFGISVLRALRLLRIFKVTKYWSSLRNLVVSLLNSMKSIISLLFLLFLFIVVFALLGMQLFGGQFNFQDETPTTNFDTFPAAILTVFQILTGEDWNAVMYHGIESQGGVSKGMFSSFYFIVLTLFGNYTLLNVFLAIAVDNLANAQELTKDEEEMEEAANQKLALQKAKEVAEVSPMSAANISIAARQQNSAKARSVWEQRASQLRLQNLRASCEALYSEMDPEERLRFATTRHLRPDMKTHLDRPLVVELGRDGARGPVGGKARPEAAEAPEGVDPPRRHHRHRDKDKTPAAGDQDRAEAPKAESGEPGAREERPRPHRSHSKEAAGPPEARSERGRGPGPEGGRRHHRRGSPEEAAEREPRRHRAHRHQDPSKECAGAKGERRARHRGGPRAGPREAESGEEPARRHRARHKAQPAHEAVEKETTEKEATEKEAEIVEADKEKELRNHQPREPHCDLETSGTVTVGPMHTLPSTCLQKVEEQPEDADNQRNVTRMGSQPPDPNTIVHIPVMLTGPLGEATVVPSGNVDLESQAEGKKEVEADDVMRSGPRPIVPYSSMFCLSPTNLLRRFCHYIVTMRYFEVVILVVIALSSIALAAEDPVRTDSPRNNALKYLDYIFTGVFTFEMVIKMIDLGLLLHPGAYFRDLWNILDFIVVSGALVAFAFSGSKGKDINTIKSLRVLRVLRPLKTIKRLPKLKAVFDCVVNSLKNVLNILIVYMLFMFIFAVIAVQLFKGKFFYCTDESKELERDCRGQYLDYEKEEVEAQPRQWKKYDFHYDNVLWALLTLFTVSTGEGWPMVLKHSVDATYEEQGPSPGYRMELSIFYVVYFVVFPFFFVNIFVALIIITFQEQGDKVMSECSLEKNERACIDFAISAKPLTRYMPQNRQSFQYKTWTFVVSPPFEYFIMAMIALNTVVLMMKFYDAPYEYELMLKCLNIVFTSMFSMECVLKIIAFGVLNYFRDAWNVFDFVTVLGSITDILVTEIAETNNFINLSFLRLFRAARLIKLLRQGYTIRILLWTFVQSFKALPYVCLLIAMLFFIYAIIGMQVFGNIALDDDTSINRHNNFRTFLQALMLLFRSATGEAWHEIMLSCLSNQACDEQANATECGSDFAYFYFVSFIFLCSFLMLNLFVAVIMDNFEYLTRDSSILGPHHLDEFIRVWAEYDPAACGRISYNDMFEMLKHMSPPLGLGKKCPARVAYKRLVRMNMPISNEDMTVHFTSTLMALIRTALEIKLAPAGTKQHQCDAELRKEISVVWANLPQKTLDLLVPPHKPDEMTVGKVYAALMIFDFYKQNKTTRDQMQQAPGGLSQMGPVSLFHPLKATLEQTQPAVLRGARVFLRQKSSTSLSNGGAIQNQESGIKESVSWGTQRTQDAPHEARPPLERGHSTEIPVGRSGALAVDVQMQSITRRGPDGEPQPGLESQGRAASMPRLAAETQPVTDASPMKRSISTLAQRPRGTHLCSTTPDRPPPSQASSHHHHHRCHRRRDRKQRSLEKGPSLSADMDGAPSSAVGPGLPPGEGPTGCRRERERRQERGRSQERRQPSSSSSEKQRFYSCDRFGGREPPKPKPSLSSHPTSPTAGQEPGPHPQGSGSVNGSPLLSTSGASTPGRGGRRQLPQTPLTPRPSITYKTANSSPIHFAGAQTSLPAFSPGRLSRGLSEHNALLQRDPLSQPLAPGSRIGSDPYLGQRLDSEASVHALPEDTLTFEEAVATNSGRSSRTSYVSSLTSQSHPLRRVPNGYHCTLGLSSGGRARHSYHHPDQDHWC

One experiment has as its target T1, Human CaV2.2 channels (Homo sapiens, UniProt Q00975).
T1 construct: expressed in transfected cells; Kir2.3 also stably co-expressed
In words: Fluorescence assay for CaV2.2 channels using potassium depolarization to induce channel opening (FLIPR, Fluo 4). It counts as cell-based. The conditions noted are these: 3 μM test compound, 30 mM KCl assay buffer (inactivated channel state), HEK293 cells. The gist of the method:
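HEK293 cells stably co-expressing human CaV2.2 with α2δ and β subunits plus Kir2.3, Fluo-4 loaded; compounds preincubated 15 min at 25 °C in 1 mM or 30 mM KCl buffer (inactivated state), pH 7.4. Depolarized by KCl addition; baseline-normalized peak fluorescence (ex 480/em 535 nm) gave inhibition.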
For `CC1(S(=O)(=O)c2cccc(C(F)(F)F)c2)CCOC(c2cc(F)cc(S(C)(=O)=O)c2)C1` (stereo not drawn) [SC-297, 2-(3-Fluoro-5-methylsulfonyl-phenyl)-4-methyl-4-[[3-(trifluoromethyl)phenyl]sulfonyl]-tetrahydro-pyran], the “Activity Category: %-Inhib (CaV2.2) @3 μM @30 mM KCl” value (“Activity Category: %-Inhib” for short) is “A (%-Inhibition >95%)”.
Same read-out and setting: for `CC1(C)CC(C)(S(=O)(=O)c2cccc(C(F)(F)F)c2)CC(c2ccc(Cl)cc2)O1` (stereo not drawn) [SC-301, 6-(4-Chlorophenyl)-2,2,4-trimethyl-4-[[3-(trifluoromethyl)phenyl]sulfonyl]-tetrahydro-pyran] the value was “B (%-Inhibition >75% up to ≦95%)”; for `CC1(S(=O)(=O)c2cc(F)cc(C(F)(F)F)c2)CCOC(c2ccc(Cl)cc2)C1` (stereo not drawn) [SC-304, 2-(4-Chlorophenyl)-4-[[3-fluoro-5-(trifluoromethyl)-phenyl]sulfonyl]-4-methyl-tetrahydro-pyran], “A (%-Inhibition >95%)”; for `CC1(S(=O)(=O)c2cccc(C(F)(F)F)c2)CCOC(c2ccc(Cl)cc2)C1` (stereo not drawn) [SC-311, 2-(4-Chlorophenyl)-4-methyl-4-[[3-(trifluoromethyl)phenyl]sulfonyl]-tetrahydro-pyran], “A (%-Inhibition >95%)”.
With `CC1(S(=O)(=O)c2cccc(C(F)(F)F)c2)CCOC(c2ccc(Cl)cc2)C1` (stereo not drawn) [SC-312, 2-(4-Chlorophenyl)-4-methyl-4-[[3-(trifluoromethyl)phenyl]sulfonyl]-tetrahydro-pyran], the “Activity Category: %-Inhib” value is “B (%-Inhibition >75% up to ≦95%)”.
As for `O=S(=O)(c1cccc(C(F)(F)F)c1)C1CCOC(c2ccc(Cl)cc2)C1` (stereo not drawn) [SC-402, 2-(4-Chlorophenyl)-4-[[3-(trifluoromethyl)phenyl]sulfonyl]-tetrahydro-pyran], the “Activity Category: %-Inhib” value is reported as “A (%-Inhibition >95%)”.
Regarding `CC1(S(=O)(=O)c2cccc(C(F)F)c2)CCOC(c2ccc(S(C)(=O)=O)cc2F)C1` (stereo not drawn) [SC-510, 4-[[3-(Difluoro-methyl)-phenyl]sulfonyl]-2-(2-fluoro-4-methylsulfonyl-phenyl)-4-methyl-tetrahydro-pyran], the “Activity Category: %-Inhib” value is “A (%-Inhibition >95%)”.
As for `CC1(S(=O)(=O)c2cccc(C3CC3)c2)CCOC(c2ccc(S(C)(=O)=O)cc2F)C1` (stereo not drawn) [SC-513, 4-[(3-Cyclopropyl-phenyl)sulfonyl]-2-(2-fluoro-4-methylsulfonyl-phenyl)-4-methyl-tetrahydro-pyran], the “Activity Category: %-Inhib” value is recorded as “A (%-Inhibition >95%)”.
The same measure, in the same setting: the result for `CC1(S(=O)(=O)c2cccc(OC(F)F)c2)CCOC(c2ccc(S(C)(=O)=O)cc2F)C1` (stereo not drawn) [SC-516, 4-[[3-(Difluoro-methoxy)-phenyl]sulfonyl]-2-(2-fluoro-4-methylsulfonyl-phenyl)-4-methyl-tetrahydro-pyran] reads “C (%-Inhibition >40% up to ≦75%)”; that for `CC1(S(=O)(=O)c2cccc(OC(F)F)c2)CCOC(c2ccc(S(C)(=O)=O)cc2F)C1` (stereo not drawn) [SC-517, 4-[[3-(Difluoro-methoxy)-phenyl]sulfonyl]-2-(2-fluoro-4-methylsulfonyl-phenyl)-4-methyl-tetrahydro-pyran], “B (%-Inhibition >75% up to ≦95%)”.
Still for that read-out and setting: the result for `CC1(S(=O)(=O)c2cc(F)cc(C(F)(F)F)c2)CCOC(c2ccc(S(C)(=O)=O)cc2F)C1` (stereo not drawn) [SC-519, 2-(2-Fluoro-4-methylsulfonyl-phenyl)-4-[[3-fluoro-5-(trifluoromethyl)-phenyl]sulfonyl]-4-methyl-tetrahydro-pyran] reads “A (%-Inhibition >95%)”.

Still in this experiment, the particulars now being: HEK293, 3 μM test compound, 30 mM KCl assay buffer (inactivated channel state), HEK293 cells; read-out: Activity Category: %-Inhib (CaV2.2) @3 μM @30 mM KCl.
Turning to `CC1(S(=O)(=O)c2cccc(C(F)(F)F)c2)CCOC(c2cc(F)cc(S(C)(=O)=O)c2)C1` (stereo not drawn) [SC-296, 2-(3-Fluoro-5-methylsulfonyl-phenyl)-4-methyl-4-[[3-(trifluoromethyl)phenyl]sulfonyl]-tetrahydro-pyran], the inhibition at 3 µM was in the range of 75 to 95%.
As to `CC1(C)CC(C)(S(=O)(=O)c2cccc(C(F)(F)F)c2)CC(c2ccc(Cl)cc2)O1` (stereo not drawn) [SC-300, 6-(4-Chlorophenyl)-2,2,4-trimethyl-4-[[3-(trifluoromethyl)phenyl]sulfonyl]-tetrahydro-pyran], the inhibition at 3 µM was more than 95%.
Regarding `CC1(S(=O)(=O)c2cc(F)cc(C(F)(F)F)c2)CCOC(c2ccc(Cl)cc2)C1` (stereo not drawn) [SC-303, 2-(4-Chlorophenyl)-4-[[3-fluoro-5-(trifluoromethyl)-phenyl]sulfonyl]-4-methyl-tetrahydro-pyran], the inhibition at 3 µM was 75 to 95%.
Still for that read-out and setting: the result for `CCC1(S(=O)(=O)c2cccc(C(F)(F)F)c2)CCOC(C2CC2)C1` (stereo not drawn) [SC-306, 2-Cyclopropyl-4-ethyl-4-[[3-(trifluoromethyl)phenyl]sulfonyl]-tetrahydro-pyran] reads 40 to 75%; that for `CC1(S(=O)(=O)c2cccc(C(F)(F)F)c2)CCOC(c2ccc(Cl)cc2)C1` (stereo not drawn) [SC-310, 2-(4-Chlorophenyl)-4-methyl-4-[[3-(trifluoromethyl)phenyl]sulfonyl]-tetrahydro-pyran], more than 95%; that for `CC1(S(=O)(=O)c2cccc(OC(F)(F)F)c2)CCOC(c2ccc(Cl)cc2)C1` (stereo not drawn) [SC-313, 2-(4-Chlorophenyl)-4-methyl-4-[[3-(trifluoromethyloxy)-phenyl]sulfonyl]-tetrahydro-pyran], more than 95%.
Regarding `O=S(=O)(c1cccc(C(F)(F)F)c1)C1CCOC(c2ccc(Cl)cc2)C1` (stereo not drawn) [SC-401, 2-(4-Chlorophenyl)-4-[[3-(trifluoromethyl)phenyl]sulfonyl]-tetrahydro-pyran], the inhibition at 3 µM was 75 to 95%.
Same read-out and setting: for `CC(C)Oc1cccc(S(=O)(=O)C2(C)CCOC(c3ccc(S(C)(=O)=O)cc3F)C2)c1` (stereo not drawn) [SC-500, 2-(2-Fluoro-4-methylsulfonyl-phenyl)-4-[(3-isopropoxy-phenyl)sulfonyl]-4-methyl-tetrahydro-pyran] the value was 75 to 95%.
On the same count and under the same terms, for `CC1(S(=O)(=O)c2cccc(OC(F)(F)F)c2)CCOC(c2ccc(S(C)(=O)=O)cc2F)C1` (stereo not drawn) [SC-502, 2-(2-Fluoro-4-methylsulfonyl-phenyl)-4-methyl-4-[[3-(trifluoromethyloxy)-phenyl]sulfonyl]-tetrahydro-pyran] the value was more than 95%; for `CC(C)c1cccc(S(=O)(=O)C2(C)CCOC(c3ccc(S(C)(=O)=O)cc3F)C2)c1` (stereo not drawn) [SC-506, 2-(2-Fluoro-4-methylsulfonyl-phenyl)-4-[(3-isopropyl-phenyl)sulfonyl]-4-methyl-tetrahydro-pyran], more than 95%; for `CC1(S(=O)(=O)c2cccc(C(F)F)c2)CCOC(c2ccc(S(C)(=O)=O)cc2F)C1` (stereo not drawn) [SC-509, 4-[[3-(Difluoro-methyl)-phenyl]sulfonyl]-2-(2-fluoro-4-methylsulfonyl-phenyl)-4-methyl-tetrahydro-pyran], 75 to 95%.
As to `CC1(S(=O)(=O)c2cccc(C3CC3)c2)CCOC(c2ccc(S(C)(=O)=O)cc2F)C1` (stereo not drawn) [SC-512, 4-[(3-Cyclopropyl-phenyl)sulfonyl]-2-(2-fluoro-4-methylsulfonyl-phenyl)-4-methyl-tetrahydro-pyran], the inhibition at 3 µM lay in the range of 75 to 95%.
As for `CC1(S(=O)(=O)c2cc(F)cc(C(F)(F)F)c2)CCOC(c2ccc(S(C)(=O)=O)cc2F)C1` (stereo not drawn) [SC-518, 2-(2-Fluoro-4-methylsulfonyl-phenyl)-4-[[3-fluoro-5-(trifluoromethyl)-phenyl]sulfonyl]-4-methyl-tetrahydro-pyran], the inhibition at 3 µM fell in the range of 75 to 95%.
